Results on one compound are retold here after patent US20250255845A1, “USE OF INTERLEUKIN (IL)-17A INHIBITOR IN PREPARATION OF MEDICAMENT FOR TREATING INFLAMMATORY DISEASE” (Xiangnan University, priority 2024, published 2025).

One test has as its system TNF-α. Put plainly: ELISA of LPS-induced TNF-α secretion in RAW264.7 cells. The class given is cell-based, mouse. The procedure:
(§1) RAW264.7 cell culture: mouse mononuclear macrophages (RAW264.7, ATCC) are cultured in a complete medium containing 10% fetal bovine serum (FBS), 1% double antibodies (penicillin and streptomycin), and 89% DMEM at 37° C. and 5% CO2. In this experiment, RAW264.7 cells from passages 3 to 8 are used for related test.
(§2) LPS (100 ng/ml) is added for stimulation, with or without Tan, and the cell supernatant is collected to detect the contents of NO, IL-23, IL-17A, TNF-α, and IL-6 in the cell supernatant. The cell lysate is collected and the protein expressions (STAT3, p-STAT3 (Ser727), and p-STAT3 (Tyr705)) are detected by Western blot. Total cell RNA is extracted and real-time fluorescence quantitative polymerase chain reaction (PCR) is conducted to detect the expression levels of IL-23, IL-17A, TNF-α, and IL-6 mRNA.
(§3) RAW264.7 cells in the logarithmic growth phase were inoculated into a 6-well plate and the cell density was adjusted to 5.0×10^5 cells/well. After culturing for 24 h, the cells were stably adhered to the plate. The original medium was removed and different concentrations (5, 10, 20, 40 μM) of Tan were added to allow pretreatment for 1 h. […] The OD450 nm value of the cell supernatant was detected according to the instructions of the TNF-α and IL-6 ELISA kits, and the content of pro-inflammatory factors (TNF-α and IL-6) in the cell supernatant was calculated.
For orientation: In an ELISA, binding on a coated surface is turned into a signal by an enzyme label.

Another test relates to IL-17A. Put plainly: Immunohistochemistry of IL-17A in dorsal skin of IMQ-induced psoriasis mice. The following applies: preventive and therapeutic administration groups; dose-dependent. The class given is in vivo, Balb/c mice. How it is done:
Balb/c mice (female, 6-8 weeks, 20+2 g), with certificate number [SCXK (Xiang) 2021-0002], were purchased from Hunan SJA Laboratory Animal (Changsha, China). All mice were housed in an specific pathogen free (SPF)-grade animal room with a 12 h light/12 h dark cycle, and experiments were started after the mice were acclimated for one week. Next, 96 mice were randomly divided into 12 groups (8 mice/group), including Control group, Control solvent (white vaseline) group, IMQ group, IMQ solvent (white vaseline) group, preventive administration of positive medicament Clo group (IMQ+Clo 55 mg), therapeutic administration of positive medicament group (IMQ+Clo (A) 55 mg), preventive administration of Tan low-dose group (IMQ+Tan 40 μg/cm^2), medium-dose group (IMQ+Tan160 μg/cm^2), and high-dose group (IMQ+Tan 640 μg/cm^2), and therapeutic administration of Tan low-dose group (IMQ+Tan (A) 40 μg/cm^2), medium-dose group (IMQ+Tan (A) 160 μg/cm^2), and high-dose group (IMQ+Tan (A) 640 μg/cm^2). After the mice were anesthetized, a 2 cm×3 cm area on the back was selected for hair removal. Modeling began 48 h after hair removal, and all modeling mice were applied with 65 mg (55 mg on the back and 5 mg on each ear) of IMQ cream every morning for 10 d. […]

Test [1] relates to IMQ-induced psoriasis mice. Put plainly: Dorsal skin lesions of IMQ-induced psoriasis mice. The class given is in vivo, Balb/c mice. The procedure: Balb/c mice (female, 6-8 weeks, 20+2 g), with certificate number [SCXK (Xiang) 2021-0002], were purchased from Hunan SJA Laboratory Animal (Changsha, China). All mice were housed in an specific pathogen free (SPF)-grade animal room with a 12 h light/12 h dark cycle, and experiments were started after the mice were acclimated for one week. Next, 96 mice were randomly divided into 12 groups (8 mice/group), including Control group, Control solvent (white vaseline) group, IMQ group, IMQ solvent (white vaseline) group, preventive administration of positive medicament Clo group (IMQ+Clo 55 mg), therapeutic administration of positive medicament group (IMQ+Clo (A) 55 mg), preventive administration of Tan low-dose group (IMQ+Tan 40 μg/cm^2), medium-dose group (IMQ+Tan160 μg/cm^2), and high-dose group (IMQ+Tan 640 μg/cm^2), and therapeutic administration of Tan low-dose group (IMQ+Tan (A) 40 μg/cm^2), medium-dose group (IMQ+Tan (A) 160 μg/cm^2), and high-dose group (IMQ+Tan (A) 640 μg/cm^2). After the mice were anesthetized, a 2 cm×3 cm area on the back was selected for hair removal. Modeling began 48 h after hair removal, and all modeling mice were applied with 65 mg (55 mg on the back and 5 mg on each ear) of IMQ cream every morning for 10 d. In the Tan preventive administration groups, the low-dose group (40 μg/cm^2), the medium-dose group (160 μg/cm^2), and the high-dose group (640 μg/cm^2) were topically administered to the back and ears every afternoon starting from the first day of modeling for 10 d. In the Tan therapeutic administration groups, the low-dose group (40 μg/cm^2), the medium-dose group (160 μg/cm^2), and the high-dose group (640 μg/cm^2) were topically administered to the back and ears every afternoon starting from the 3rd day of modeling for 10 d. The mice in the preventive positive medicament group received Clo (55 mg/mouse, 45 mg on the back, 5 mg on each ear) treatment from the first day of modeling, and the mice in the therapeutic positive medicament group received Clo (55 mg/mouse, 45 mg on the back, 5 mg on each ear) treatment from the third day of modeling.

Another test deals with IL-6. Put plainly: ELISA of LPS-induced IL-6 secretion in RAW264.7 cells. Type of test: cell-based, mouse. The procedure:
as §1, §2, §3

A further test relates to p-STAT3 (Tyr 705). The test can be described thus: Western blot of p-STAT3 (Tyr 705) in LPS-induced RAW264.7 cells. The class given is cell-based, mouse. The procedure: as §1, §2
RAW264.7 cells in the logarithmic growth phase were inoculated in 100 mm culture dishes, and the cell density was adjusted to 1.6×10^6 cells/dish. […] The supernatant was collected by centrifugation at 4° C., 12,000 rpm for 5 min, and the protein concentration was determined by BCA method. […] Enhanced Chemiluminescence (ECL) color development was used for detection, and protein band quantification was performed using Image J software.
Background: Immunoblotting shows a protein as a band on a membrane.

Where [2] appears, read: 5-40 μM, 24 h, vs LPS group, P<0.001, dose-dependent.

Each structure is given as a SMILES string.

Consider `COc1ccc(-c2cc(=O)c3c(OC)c(OC)c(OC)c(OC)c3o2)cc1` [Tan, tangeretin], for which the “inhibitory effect on TNF-α secretion compared with positive control Clo” value with TNF-α (40 μM) was “comparable to that of the positive control”. Further, the “TNF-α level in the cell supernatant” value with TNF-α (setting [2]) is listed as “significantly decreased”. For the same compound, the “expression level of IL-17A in the dorsal skin” value with IL-17A is on record as “significantly reduced”. Also, the “improvement of dorsal skin lesions compared with positive control Clo” value in test [1] (high-dose (640 μg/cm^2) preventive and therapeutic groups) was “comparable to that of the positive control Clo”. Moreover, the “erythema and scaling of dorsal skin” value in test [1] (preventive and therapeutic topical administration, 40/160/640 μg/cm^2, vs IMQ group, dose-dependent) was “significant reduction in erythema and scaling”. Further, in test [1] (preventive group (from first day of modeling)), the “scales and erythema on the dorsal skin” value is given as “almost disappeared”. The “back scales after treatment” value in test [1] (therapeutic group (from 3rd day of modeling)) is on record as “only a minimal amount of back scales remained”. The “inhibitory effect on IL-6 secretion compared with positive control Clo” value in the test on IL-6 (40 μM) was “comparable to that of the positive control”. The “IL-6 level in the cell supernatant” value in the test with IL-6 (setting [2]) is listed as “significantly decreased”. Further, the “suppression of STAT3 phosphorylation (Tyr 705) compared with positive control Clo” value in the test on p-STAT3 (Tyr 705) (40 μM) is listed as “comparable efficacy to the positive control”. Also, in the test with p-STAT3 (Tyr 705) (5-40 μM, vs LPS group, P<0.001, dose-dependent), the “expression of p-STAT3 (Tyr 705) protein” value is on record as “inhibited”.
